Activity calls are given as the source filed them. No cut-off for these calls is given here.
Experiments:
[1] = target: Sigma non-opioid intracellular receptor 1 (Cavia porcellus, UniProt Q60492); assay: Displacement of [3H]-(+)-pentazocine from guinea pig brain membrane sigma 1 receptor assessed as inhibition constant measured after 120 mins by scintillation counting method; format: cell membranes
[2] = target: T1, Sigma intracellular receptor 2 (Rattus norvegicus, UniProt Q5U3Y7); assay: Displacement of [3H]di-o-tolylguanidine from rat liver membrane sigma 2 receptor assessed as inhibition constant measured after 120 mins by scintillation counting method; format: cell membranes
T1 sequence (Q5U3Y7 whole entry): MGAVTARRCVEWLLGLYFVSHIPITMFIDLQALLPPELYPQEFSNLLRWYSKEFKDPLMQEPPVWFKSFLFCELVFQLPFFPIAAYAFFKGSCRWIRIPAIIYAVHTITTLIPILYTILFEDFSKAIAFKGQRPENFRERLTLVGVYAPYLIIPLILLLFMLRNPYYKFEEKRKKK

[3] = target: Glutamate receptor ionotropic, NMDA 2B (Mus musculus) (UniProt Q01097); assay: Displacement of [3H]ifenprodil from GluN2B in mouse LTK cells at 1 uM measured after 120 mins by scintillation counting method relative to control; format: cell-based
Chain of Glutamate receptor ionotropic, NMDA 2B (Mus musculus) (Q01097 whole entry): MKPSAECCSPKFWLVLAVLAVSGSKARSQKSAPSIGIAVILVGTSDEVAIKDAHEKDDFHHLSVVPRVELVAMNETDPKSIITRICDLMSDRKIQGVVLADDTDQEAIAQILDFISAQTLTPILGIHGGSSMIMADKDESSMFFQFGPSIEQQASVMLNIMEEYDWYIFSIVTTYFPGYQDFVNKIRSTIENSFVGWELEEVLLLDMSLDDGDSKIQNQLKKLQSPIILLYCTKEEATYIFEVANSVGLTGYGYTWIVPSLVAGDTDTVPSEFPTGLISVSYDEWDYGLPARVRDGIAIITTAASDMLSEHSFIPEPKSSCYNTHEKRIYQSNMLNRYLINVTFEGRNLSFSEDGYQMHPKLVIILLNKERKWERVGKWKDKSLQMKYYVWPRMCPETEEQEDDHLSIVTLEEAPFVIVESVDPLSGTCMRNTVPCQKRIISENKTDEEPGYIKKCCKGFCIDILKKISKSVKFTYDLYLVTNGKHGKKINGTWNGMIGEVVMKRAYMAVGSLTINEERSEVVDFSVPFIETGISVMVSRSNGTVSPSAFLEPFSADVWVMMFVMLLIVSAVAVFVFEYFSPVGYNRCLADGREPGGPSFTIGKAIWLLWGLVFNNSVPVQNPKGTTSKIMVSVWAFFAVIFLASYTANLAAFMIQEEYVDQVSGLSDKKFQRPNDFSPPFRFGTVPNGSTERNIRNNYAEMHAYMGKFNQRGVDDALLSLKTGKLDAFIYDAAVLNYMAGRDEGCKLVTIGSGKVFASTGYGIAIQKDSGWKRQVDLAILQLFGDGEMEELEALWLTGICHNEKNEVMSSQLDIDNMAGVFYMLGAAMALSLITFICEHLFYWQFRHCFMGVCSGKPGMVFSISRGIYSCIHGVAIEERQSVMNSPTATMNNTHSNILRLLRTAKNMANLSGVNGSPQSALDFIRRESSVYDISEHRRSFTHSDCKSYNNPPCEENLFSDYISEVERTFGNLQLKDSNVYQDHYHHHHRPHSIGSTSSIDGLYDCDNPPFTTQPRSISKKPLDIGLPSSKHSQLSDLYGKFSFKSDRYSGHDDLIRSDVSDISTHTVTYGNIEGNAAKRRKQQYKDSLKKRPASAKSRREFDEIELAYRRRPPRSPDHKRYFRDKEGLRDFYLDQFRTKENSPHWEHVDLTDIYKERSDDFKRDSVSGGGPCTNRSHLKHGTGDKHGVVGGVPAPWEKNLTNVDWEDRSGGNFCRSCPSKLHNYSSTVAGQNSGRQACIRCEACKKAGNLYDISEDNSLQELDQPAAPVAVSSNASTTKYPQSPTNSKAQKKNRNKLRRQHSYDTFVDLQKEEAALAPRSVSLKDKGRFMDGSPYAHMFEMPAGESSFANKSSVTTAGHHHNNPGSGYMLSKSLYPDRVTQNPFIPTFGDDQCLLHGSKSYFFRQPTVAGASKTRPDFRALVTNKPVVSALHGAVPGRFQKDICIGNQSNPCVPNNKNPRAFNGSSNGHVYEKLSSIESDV

[4] = target: Glutamate receptor ionotropic, NMDA 2B (Mus musculus, UniProt P35438+Q01097); assay: Displacement of [3H]ifenprodil from GluN2B in mouse LTK cells assessed as inhibition constant measured after 120 mins by scintillation counting method; format: cell-based
Chain of Glutamate receptor ionotropic, NMDA 2B (Q01097 whole entry, one chain of several): as the sequence (Q01097 whole entry) above

Mus musculus [5] = assay: Antiallodynic activity in capsaicin-induced mechanical allodynia CD1 mouse model assessed as increase in paw withdrawal latency at 32 mg/kg, sc pretreated for 30 mins followed by capsaicin addition and measured after 15 mins; format: functional, organism-based; details: time 45.0 min
Mus musculus [6] = assay: Antiallodynic activity in capsaicin-induced allodynia CD1 mouse model at 16 mg/kg, ip measured after 15 mins relative to control; format: functional; details: 0.25 h
Mus musculus [7] = assay: Antiallodynic activity in ip dosed capsaicin-induced allodynia CD1 mouse model measured after 15 mins; format: functional; details: CD1, 0.25 h
[8] = target: T2, Sigma intracellular receptor 2 (Rattus norvegicus) (UniProt Q5U3Y7); assay: Displacement of [3H]di-o-tolylguanidine from rat liver membrane sigma 2 receptor at 1 uM measured after 120 mins by scintillation counting method relative to control; format: cell membranes
T2 sequence (whole entry): T1 sequence (Q5U3Y7 whole entry)

[9] = Lipophilicity, logD of the compound at pH 7.4 by LC-MS analysis; format: physicochemical; details: buffer
[10] = Plasma protein binding in human by HPAC method; format: ADME, cell-free; details: read-out: PPB (converted)
[11] = Metabolic stability in C57BL/6 mouse liver microsomes assessed as compound remaining incubated for 90 mins in presence of NADPH by LC-MS analysis; format: ADME, Microsome; details: read-out: Activity
Mus musculus [12] = assay: Antiallodynic activity in capsaicin-induced allodynia CD1 mouse model at 16 mg/kg, sc pretreated for 30 mins followed by capsaicin addition and measured after 15 mins relative to control; format: functional; details: time 45 min, 0.75 h
Mus musculus [13] = assay: Antiallodynic activity in capsaicin-induced mechanical allodynia CD1 mouse model assessed as increase in paw withdrawal latency at 4 to 32 mg/kg, sc pretreated for 30 mins followed by capsaicin addition and measured after 15 mins; format: functional, organism-based; details: dose 4-32 mg/kg, time 45.0 min
Mus musculus [14] = assay: Antiallodynic activity in capsaicin-induced mechanical allodynia CD1 mouse model assessed as increase in paw withdrawal latency at 16 mg/kg, sc pretreated with PRE-084 followed by compound addition; format: functional, organism-based
Mus musculus [15] = assay: Antiallodynic activity in sc dosed capsaicin-induced allodynia CD1 mouse model pretreated for 30 mins followed by capsaicin addition and measured after 15 mins; format: functional; details: CD1, 0.75 h, time 45 min

Chain of Sigma non-opioid intracellular receptor 1 (Q60492 whole entry): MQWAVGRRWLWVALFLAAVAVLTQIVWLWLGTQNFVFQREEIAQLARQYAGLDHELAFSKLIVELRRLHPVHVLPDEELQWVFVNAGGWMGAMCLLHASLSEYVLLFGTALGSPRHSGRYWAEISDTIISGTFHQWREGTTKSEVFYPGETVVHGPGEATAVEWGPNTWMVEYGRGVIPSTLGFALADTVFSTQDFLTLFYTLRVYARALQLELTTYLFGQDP

Ki [1] | Ki [2] | Ki [4] | Structure (SMILES) | also measured
> 1000 nM |  | > 58 nM | Cc1cc(OCCN2CCOCC2)nn1-c1ccc2ccccc2c1 | Activity (Mus musculus [5]): Active; Activity (Mus musculus [6]): 43%; ED50 (Mus musculus [7]): 26.3 mg/kg
43 nM | 265 nM | 511 nM | C[C@@H]1CC[C@@H]([C@](C)(O)CNCCCCc2ccccc2)[C@@H](O)C1 | 
42 nM | 273 nM | 263 nM | C[C@@H]1CC[C@@H]2[C@H](C1)OCO[C@]2(C)CNCCCCc1ccccc1 | 
8.2 nM | 850 nM | 1300 nM | C[C@@H]1CC[C@@H]([C@@](C)(O)CNCCCCc2ccccc2)[C@H](O)C1 | logD [9]: 1.84; fraction unbound [10]: 0.073
4.9 nM | 145 nM | 205 nM | C[C@@H]1CC[C@@H]2[C@H](C1)OCO[C@@]2(C)CN1CCC(Cc2ccccc2)CC1 | 
54 nM | 779 nM | 890 nM | C[C@@H]1CC[C@@H]2[C@H](C1)O[C@@H]1CN(CCCCc3ccccc3)C[C@@]2(C)O1 | 
7 nM | 424 nM | 1060 nM | C[C@@H]1CC[C@@H]([C@@](C)(O)CNCCCCc2ccccc2)[C@@H](O)C1 | 
31 nM | 207 nM | 508 nM | C[C@@H]1CC[C@@H]([C@](C)(O)CNCCCCc2ccccc2)[C@H](O)C1 | 
1 nM | 172 nM | 125 nM | C[C@@H]1CC[C@@H]([C@@](C)(O)CN2CCC(Cc3ccccc3)CC2)[C@@H](O)C1 | 
1.6 nM | 379 nM | 370 nM | C[C@@H]1CC[C@@H]2[C@@H](C1)OCO[C@]2(C)CN1CCC(Cc2ccccc2)CC1 | 
3.5 nM | 123 nM | 267 nM | C[C@@H]1CC[C@@H]2[C@H](C1)OCO[C@]2(C)CN1CCC(Cc2ccccc2)CC1 | 
69 nM | 86 nM | 61 nM | C[C@@H]1CC[C@@H]2[C@@H](C1)OCO[C@@]2(C)CNCCCCc1ccccc1 | logD [9]: 2.67; fraction unbound [10]: 0.061
1.2 nM | 36 nM | 53 nM | C[C@@H]1CC[C@@H]([C@@](C)(O)CN2CCC(Cc3ccccc3)CC2)[C@H](O)C1 | logD [9]: 3.05; fraction unbound [10]: 0.122; remaining at 1.5 h [11]: 19%; Activity (Mus musculus [12]): ~89%; Activity (Mus musculus [13]): Active; Activity (Mus musculus [14]): inactive; ED50 (Mus musculus [15]): ~8 mg/kg

Continued, molecule first:

Structure (SMILES) | Ki [1] | Ki [2] | Ki [4] | also measured
C[C@@H]1CC[C@@H]2[C@@H](C1)O[C@@H]1CN(CCCCc3ccccc3)C[C@@]2(C)O1 | 805 nM | 1600 nM |  | inhibition [3]: 0%
C[C@@H]1CC[C@@H]2[C@H](C1)OC1CN(CCCCc3ccccc3)C[C@]2(C)O1 (single isomer, unassigned) | 725 nM |  |  | inhibition [8]: 0%; inhibition [3]: 0%
C[C@@H]1CC[C@@H]2[C@@H](C1)OCO[C@]2(C)CNCCCCc1ccccc1 | 9.7 nM | 322 nM | 408 nM | 
C[C@@H]1CC[C@@H]2[C@@H](C1)OC(C)(C)O[C@]2(C)CN1CCC(Cc2ccccc2)CC1 | 114 nM | 880 nM | 423 nM | 
C[C@@H]1CC[C@@H]([C@](C)(O)CN2CCC(Cc3ccccc3)CC2)[C@@H](O)C1 | 18 nM | 216 nM | 363 nM | 
C[C@@H]1CC[C@@H]2[C@@H](C1)OCO[C@@]2(C)CN1CCC(Cc2ccccc2)CC1 | 5 nM | 119 nM | 36 nM | logD [9]: 3.45
C[C@@H]1CC[C@@H]2[C@@H](C1)OC(C)(C)O[C@@]2(C)CN1CCC(Cc2ccccc2)CC1 | 16 nM | 649 nM | 1300 nM | 
C[C@@H]1CC[C@@H]2[C@H](C1)OCO[C@@]2(C)CNCCCCc1ccccc1 | 8.6 nM | 525 nM | 313 nM | 
C[C@@H]1CC[C@@H]([C@](C)(O)CN2CCC(Cc3ccccc3)CC2)[C@H](O)C1 | 2.8 nM | 194 nM | 92 nM | 
C[C@@H]1CC[C@@H]2[C@@H](C1)O[C@H]1CN(CCCCc3ccccc3)C[C@]2(C)O1 | 2100 nM |  |  | logD [9]: 3.96; fraction unbound [10]: < 0.02; inhibition [8]: 0%; inhibition [3]: 6%
CN1CCN(CCc2ccc(Cl)c(Cl)c2)CC1 | 449 nM |  | 49 nM | 
COc1ccc(CC2CCN(C[C@](C)(O)[C@@H]3CC[C@@H](C)C[C@H]3O)CC2)cc1 | 2.9 nM | 75 nM | 45 nM | 

— ChEMBL document CHEMBL5380826, “Conformationally Restricted σ1 Receptor Antagonists from (-)-Isopulegol” (J Med Chem, 2023)
